From ChEMBL document CHEMBL1201862, “PubChem BioAssay data set” (2004)
The source made the active and inactive calls.

Key:
[1] = biological target: Apoptotic protease-activating factor 1 (Homo sapiens, UniProt O14727); assay: SAR analysis of small molecule Activators of Apaf-1 in a Fluorescent assay.; assay type: functional; conditions: read-out: EC50_Mean;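 also: caspase-3 cleavage of fluorogenic Rh110 DEVD substrate downstream of apoptosome activation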
[2] = biological target: 72 kDa type IV collagenase (Homo sapiens, UniProt P08253); assay: Dose Response validation of uHTS RPN11 inhibitor hits using a MMP-2 Fluorescence assay.; assay type: functional
Prothrombin = Prothrombin (Bos taurus, UniProt P00735); assay: thrombin protease inhibitors – biochemical, fluorescence polarization, uHTS hits, dose response (AID 602369); assay type: functional
[3] = biological target: 26S proteasome non-ATPase regulatory subunit 14 (Homo sapiens, UniProt O00487); assay: inhibition of proteasome subunit RPN11 – biochemical, fluorescence polarization, uHTS hits, confirmation (AID 602368); assay type: functional
[4] = biological target: Potassium voltage-gated channel subfamily KQT member 2 (Rattus norvegicus, UniProt O88943); assay: blockers of KCNQ2 channel current – cell-based, automated electrophysiology, set II, rat KCNQ2, dose response (AID 588637); assay type: functional
Escherichia coli [5] = assay: microbe, parasite or virus in culture
[6] = biological target: Sentrin-specific protease 6 (Homo sapiens, UniProt Q9GZR1); assay type: functional;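 also: Luminescence-based dose-response confirmatory assay of SENP6 inhibition, following up an ultra-high-throughput screen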
[7] = biological target: Sentrin-specific protease 7 (Homo sapiens, UniProt Q9BQF6); assay type: functional;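 also: Luminescence-based dose-response confirmation of ultra-high-throughput screening hits, measuring inhibition of SENP7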
[8] = biological target: T1, Sentrin-specific protease 8 (Homo sapiens, UniProt Q96LD8); assay type: functional;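 also: luminescence read-out of SENP8 inhibition, dose-response confirmation following an ultra-high-throughput screen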
T1 sequence (Q96LD8 whole entry): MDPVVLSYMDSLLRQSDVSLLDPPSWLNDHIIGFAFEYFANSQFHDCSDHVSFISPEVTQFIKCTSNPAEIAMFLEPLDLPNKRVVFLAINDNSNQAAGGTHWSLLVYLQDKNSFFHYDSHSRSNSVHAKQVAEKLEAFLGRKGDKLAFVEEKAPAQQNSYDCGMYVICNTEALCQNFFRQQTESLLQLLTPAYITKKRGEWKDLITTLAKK

Caspase-3 = biological target: T2, Caspase-3 (Homo sapiens, UniProt P42574); assay type: functional;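 also: Dose-response selectivity test against caspase-3 for candidate inhibitors of sentrin-specific proteases (SENPs)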
T2 sequence (P42574 whole entry): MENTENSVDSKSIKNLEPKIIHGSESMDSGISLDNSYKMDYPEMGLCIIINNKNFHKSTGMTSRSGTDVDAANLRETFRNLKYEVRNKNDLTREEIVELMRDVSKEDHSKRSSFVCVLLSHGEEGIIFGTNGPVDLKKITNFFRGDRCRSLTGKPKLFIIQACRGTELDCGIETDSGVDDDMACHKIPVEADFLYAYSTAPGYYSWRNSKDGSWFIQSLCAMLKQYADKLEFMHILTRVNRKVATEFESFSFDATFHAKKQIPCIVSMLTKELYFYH

Escherichia coli [9] = assay: microbe, parasite or virus in culture; remark: listed apart in the source
Cysteine protease ATG4B = Cysteine protease ATG4B (Homo sapiens, UniProt Q9Y4P1); assay type: functional;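 also: Fluorescence-based dose-response confirmation assay measuring inhibition of ATG4B activity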
Phospholipase A2 = Phospholipase A2 (Homo sapiens, UniProt P04054); assay type: functional;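 also: confirmatory dose-response counterscreen on phospholipase A2, testing hits that came from an ultra-high-throughput screen for ATG4B inhibitors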
Mu-type opioid receptor = Mu-type opioid receptor (Homo sapiens, UniProt P35372); assay: (§1) Counterscreen for agonists of heterodimerization of the mu 1 (OPRM1) and delta 1 (OPRD1) opioid receptors: Luminescence-based cell-based high throughput dose response assay to identify agonists of OPRM1 homodimerization.; assay type: functional
[10] = biological target: Delta-type opioid receptor (Homo sapiens, UniProt P41143); assay: as §1, with “of OPRD1” for “of OPRM1”, “homodimerization. [Related pubchem assays (depositor defined):AID504326, AID504355, AID504692, AID504904, AID504905]” for “homodimerization.”; assay type: functional
[11] = biological target: DNA (cytosine-5)-methyltransferase 1 (Homo sapiens, UniProt P26358); assay: inhibition of DNA methylation by DNMT1 – biochemical, fluorescent molecular beacon, confirmation (AID 602386); assay type: functional
[12] = Luminescence Cell-Based Dose Retest to Confirm Inhibitors of Cancer Stem Cells. [Related pubchem assays (depositor defined):AID2717, AID2721]; assay type: functional; conditions: Homo sapiens
[13] = biological target: T3, Corticotropin-releasing factor receptor 2/Corticotropin-releasing factor-binding protein (Homo sapiens, UniProt P24387+Q13324); assay: activators of CRF receptor 2 with binding protein – uHTS hits, confirmation (AID 602473); assay type: functional; conditions: read-out: EC50_Mean
T3 sequence (Q13324 whole entry): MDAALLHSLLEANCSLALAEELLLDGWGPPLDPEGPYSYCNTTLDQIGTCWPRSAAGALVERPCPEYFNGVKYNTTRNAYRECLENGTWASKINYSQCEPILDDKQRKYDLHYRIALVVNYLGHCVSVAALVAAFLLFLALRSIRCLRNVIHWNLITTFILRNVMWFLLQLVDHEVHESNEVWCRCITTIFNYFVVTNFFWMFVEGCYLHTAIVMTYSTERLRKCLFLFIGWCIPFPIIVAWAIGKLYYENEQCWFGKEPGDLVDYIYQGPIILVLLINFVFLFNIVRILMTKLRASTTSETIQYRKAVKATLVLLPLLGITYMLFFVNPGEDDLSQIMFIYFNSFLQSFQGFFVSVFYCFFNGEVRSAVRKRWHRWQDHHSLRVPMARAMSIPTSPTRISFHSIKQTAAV
T3 sequence (P24387 whole entry): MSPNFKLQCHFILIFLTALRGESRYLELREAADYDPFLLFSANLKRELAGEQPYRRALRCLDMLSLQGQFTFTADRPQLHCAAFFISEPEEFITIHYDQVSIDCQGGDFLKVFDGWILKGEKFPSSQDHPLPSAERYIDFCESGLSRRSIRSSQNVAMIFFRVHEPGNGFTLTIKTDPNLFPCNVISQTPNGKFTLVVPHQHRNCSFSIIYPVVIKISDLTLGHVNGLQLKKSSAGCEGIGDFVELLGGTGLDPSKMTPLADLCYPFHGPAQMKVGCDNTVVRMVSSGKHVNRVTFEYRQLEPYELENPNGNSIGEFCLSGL

[14] = biological target: 5-hydroxytryptamine receptor 5A (Homo sapiens, UniProt P47898); assay: Counterscreen for agonists of OPRM1-OPRD1 heterodimerization: luminescence-based cell-based high throughput dose response assay to identify agonists of 5-hydroxytryptamine (serotonin) 5A receptor (HTR5A). [Related pubchem assays (depositor defined):AID504326, AID504355, AID504692, AID504904, AID504905]; assay type: functional
Streptococcus = assay: GAS UMAA2166 growth inhibition – luminescence, BacTiterGlo, counter-screen for streptokinase expression inhibitor project, dose response (AID 1915); assay type: functional, organism-based;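 also: potency for reduction of bacterial viability or growth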
[15] = biological target: Low molecular weight phosphotyrosine protein phosphatase (Homo sapiens, UniProt P24666); assay type: functional; conditions: read-out: IC50_Mean;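 also: Dose-response confirmation assay measuring inhibition of LMPTP enzyme activity by fluorescence intensity read-out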
[16] = system: Streptococcus sp. 'group A'; assay: Streptococcus pyogenes SK(-)GAS viability under kanamycin – luminescence, BacTiterGlo, confirmation, counter-screen for streptokinase expression inhibitor project, dose response (AID 1900); assay type: functional, organism-based
Streptokinase A = biological target: T4, Streptokinase A (Streptococcus pyogenes serotype M1, UniProt P10520); assay: viability-normalized secreted streptokinase activity reduction – plasminogen activation absorbance, OD405, dose response (AID 1914); assay type: functional, Streptococcus pyogenes M1 GAS;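 also: secreted streptokinase activity via plasminogen activation per viability signal from cell pellet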
T4 sequence (P10520 whole entry): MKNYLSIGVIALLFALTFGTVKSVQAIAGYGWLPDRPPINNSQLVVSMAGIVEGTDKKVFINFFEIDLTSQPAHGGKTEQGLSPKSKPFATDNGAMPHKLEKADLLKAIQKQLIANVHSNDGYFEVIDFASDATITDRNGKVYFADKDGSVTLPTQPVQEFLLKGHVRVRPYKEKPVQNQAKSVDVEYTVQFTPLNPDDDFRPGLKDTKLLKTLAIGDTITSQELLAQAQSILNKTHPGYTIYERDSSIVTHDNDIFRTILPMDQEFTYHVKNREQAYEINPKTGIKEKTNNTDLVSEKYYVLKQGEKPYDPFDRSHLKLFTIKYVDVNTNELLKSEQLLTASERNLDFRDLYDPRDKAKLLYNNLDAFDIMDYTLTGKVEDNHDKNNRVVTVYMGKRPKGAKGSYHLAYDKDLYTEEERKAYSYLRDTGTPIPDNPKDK

[17] = biological target: T5, High affinity choline transporter 1 (Homo sapiens, UniProt Q9GZV3); assay: human choline transporter blockers, potency – cell-based, 5-point CRC, membrane potential dye, dose response (AID 504840); assay type: functional
T5 sequence (Q9GZV3 whole entry): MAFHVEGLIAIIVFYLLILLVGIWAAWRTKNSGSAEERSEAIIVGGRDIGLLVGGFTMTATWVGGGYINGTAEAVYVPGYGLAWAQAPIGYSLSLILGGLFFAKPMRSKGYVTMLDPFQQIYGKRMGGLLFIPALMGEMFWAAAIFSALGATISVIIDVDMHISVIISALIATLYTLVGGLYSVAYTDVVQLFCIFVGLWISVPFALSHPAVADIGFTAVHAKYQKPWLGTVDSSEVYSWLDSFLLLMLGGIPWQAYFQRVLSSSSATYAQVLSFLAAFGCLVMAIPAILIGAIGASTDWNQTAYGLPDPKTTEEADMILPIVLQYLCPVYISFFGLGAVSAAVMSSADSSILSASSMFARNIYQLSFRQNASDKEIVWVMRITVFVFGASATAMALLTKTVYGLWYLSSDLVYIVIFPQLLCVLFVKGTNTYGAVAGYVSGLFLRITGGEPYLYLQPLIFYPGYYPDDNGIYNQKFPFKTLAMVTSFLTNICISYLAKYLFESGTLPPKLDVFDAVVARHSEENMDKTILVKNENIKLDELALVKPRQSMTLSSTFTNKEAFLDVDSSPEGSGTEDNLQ

[18] = biological target: T5, High affinity choline transporter 1; assay: human choline transporter blockers, potency – cell-based, 10-point CRC, membrane potential dye, dose response (AID 588401); assay type: functional;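 also: membrane potential dye fluorescence of choline-evoked depolarization via CHT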
[19] = blockers of HIV-1 ZM109 envelope-driven cell-cell fusion – HeLa effector, CEM target cells, luciferase, cherry-pick, dose response (AID 652058); assay type: functional, cell-based;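 also: luciferase signal from HIV-1 Env mediated cell-cell fusion of effector and target cells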
[20] = viability loss in CEM21 cells – cell-based, plate reader, dry powder, cytotoxicity control, dose response (AID 687026); assay type: functional
[21] = HIV-1 AD8 envelope cell-cell fusion blockers – cherry-pick, dose response (AID 652062); assay type: functional, cell-based;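 also: luciferase signal from cell-cell fusion driven by HIV-1 clade B AD8 Env; potency is for inhibitors of fusion seen as a drop in luminescence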
[22] = blockers of HIV-1 envelope-mediated cell-cell fusion – cherry-pick, dose response (AID 652057); assay type: functional, cell-based
[23] = inhibition of Env-driven cell fusion – HIV entry, plate reader, dry powder, dose response (AID 687023); assay type: functional, cell-based
[24] = biological target: Ras and Rab interactor 1/Tyrosine-protein kinase ABL1 (Homo sapiens, UniProt P00519+Q13671); assay type: functional;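 also: biochemical TR-FRET dose-response test measuring inhibition of binding between Rin1 and Abl proteins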
[25] = viability of HCT116 lacking mutant beta-catenin – cell-based, human colon tumor, dose response (AID 1045); assay type: functional;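 also: HCT116 colon tumor cells with beta catenin knocked out; cells exposed to compound for 60 hours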
[26] = viability of PTEN-deleted HCT116 cells – cell-based, HCT116 PTEN knockout, dose response (AID 1047); assay type: functional;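 also: HCT116 colon tumor cells with PTEN knocked out; cells exposed to compound for 60 hours before readout; potency for loss of cell viability measured by luminescence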

Sequence of 72 kDa type IV collagenase (P08253 whole entry): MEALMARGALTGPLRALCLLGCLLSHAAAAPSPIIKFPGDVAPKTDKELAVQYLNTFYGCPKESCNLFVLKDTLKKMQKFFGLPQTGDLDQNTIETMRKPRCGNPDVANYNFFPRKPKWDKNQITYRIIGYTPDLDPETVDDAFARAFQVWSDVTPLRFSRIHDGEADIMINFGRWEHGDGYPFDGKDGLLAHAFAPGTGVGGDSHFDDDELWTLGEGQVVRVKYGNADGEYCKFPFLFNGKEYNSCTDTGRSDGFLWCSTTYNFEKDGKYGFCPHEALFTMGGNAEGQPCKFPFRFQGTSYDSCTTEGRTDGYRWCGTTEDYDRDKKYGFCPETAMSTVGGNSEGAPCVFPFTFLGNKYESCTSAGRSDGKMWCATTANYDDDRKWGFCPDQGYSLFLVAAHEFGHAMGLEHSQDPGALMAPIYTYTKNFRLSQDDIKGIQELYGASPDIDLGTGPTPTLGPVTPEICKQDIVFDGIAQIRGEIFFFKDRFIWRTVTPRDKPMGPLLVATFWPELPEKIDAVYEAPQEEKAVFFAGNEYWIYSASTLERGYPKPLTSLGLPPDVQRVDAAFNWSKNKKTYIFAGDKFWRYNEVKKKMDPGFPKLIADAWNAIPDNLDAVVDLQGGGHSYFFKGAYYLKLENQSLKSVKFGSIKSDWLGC
Sequence of Mu-type opioid receptor (P35372 whole entry): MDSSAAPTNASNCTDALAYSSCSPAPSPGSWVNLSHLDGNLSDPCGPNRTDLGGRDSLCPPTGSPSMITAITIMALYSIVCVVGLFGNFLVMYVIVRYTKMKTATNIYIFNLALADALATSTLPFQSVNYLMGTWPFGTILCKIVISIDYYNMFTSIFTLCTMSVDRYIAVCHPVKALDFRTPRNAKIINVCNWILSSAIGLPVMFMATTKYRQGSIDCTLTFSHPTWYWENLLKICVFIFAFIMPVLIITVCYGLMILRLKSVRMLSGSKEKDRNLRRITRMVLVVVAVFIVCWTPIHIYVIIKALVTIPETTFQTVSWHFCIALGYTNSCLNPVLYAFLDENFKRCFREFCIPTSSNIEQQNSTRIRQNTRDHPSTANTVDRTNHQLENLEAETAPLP
Sequence of 5-hydroxytryptamine receptor 5A (P47898 whole entry): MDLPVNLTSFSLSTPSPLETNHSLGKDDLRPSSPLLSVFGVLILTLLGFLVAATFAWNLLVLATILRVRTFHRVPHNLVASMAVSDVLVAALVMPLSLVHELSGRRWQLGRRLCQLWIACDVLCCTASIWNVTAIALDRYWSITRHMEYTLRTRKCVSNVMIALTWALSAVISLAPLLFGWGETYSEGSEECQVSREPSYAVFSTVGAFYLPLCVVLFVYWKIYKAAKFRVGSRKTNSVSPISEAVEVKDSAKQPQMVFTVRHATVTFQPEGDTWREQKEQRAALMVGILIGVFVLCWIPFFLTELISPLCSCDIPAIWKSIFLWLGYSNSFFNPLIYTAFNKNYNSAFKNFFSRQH
Sequence of Phospholipase A2 (P04054 whole entry): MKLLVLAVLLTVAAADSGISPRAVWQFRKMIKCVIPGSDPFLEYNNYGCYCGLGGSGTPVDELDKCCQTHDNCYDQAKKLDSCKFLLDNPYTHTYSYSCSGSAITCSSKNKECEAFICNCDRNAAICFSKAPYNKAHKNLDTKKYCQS
Sequence of Delta-type opioid receptor (P41143 whole entry): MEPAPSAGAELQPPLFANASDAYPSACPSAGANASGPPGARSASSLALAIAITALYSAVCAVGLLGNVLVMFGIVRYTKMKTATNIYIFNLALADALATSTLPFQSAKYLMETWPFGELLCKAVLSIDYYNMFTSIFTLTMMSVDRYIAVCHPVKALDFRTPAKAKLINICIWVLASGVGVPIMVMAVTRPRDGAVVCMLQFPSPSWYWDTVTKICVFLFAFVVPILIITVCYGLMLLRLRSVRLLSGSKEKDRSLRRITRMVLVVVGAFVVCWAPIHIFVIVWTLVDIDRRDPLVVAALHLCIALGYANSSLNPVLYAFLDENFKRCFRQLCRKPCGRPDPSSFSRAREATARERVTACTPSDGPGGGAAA
Sequence of Cysteine protease ATG4B (Q9Y4P1 whole entry): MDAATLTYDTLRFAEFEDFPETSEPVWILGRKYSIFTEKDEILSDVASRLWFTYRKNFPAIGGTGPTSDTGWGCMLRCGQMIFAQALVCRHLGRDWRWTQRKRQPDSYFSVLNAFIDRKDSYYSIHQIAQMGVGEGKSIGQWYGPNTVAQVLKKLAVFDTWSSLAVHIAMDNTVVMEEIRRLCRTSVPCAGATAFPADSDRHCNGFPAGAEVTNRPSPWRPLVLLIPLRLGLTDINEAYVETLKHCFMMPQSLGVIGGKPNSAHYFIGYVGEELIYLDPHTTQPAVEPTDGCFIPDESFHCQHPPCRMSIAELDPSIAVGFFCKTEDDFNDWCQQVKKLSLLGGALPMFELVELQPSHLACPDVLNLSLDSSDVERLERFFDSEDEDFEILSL
Sequence of 26S proteasome non-ATPase regulatory subunit 14 (O00487 whole entry): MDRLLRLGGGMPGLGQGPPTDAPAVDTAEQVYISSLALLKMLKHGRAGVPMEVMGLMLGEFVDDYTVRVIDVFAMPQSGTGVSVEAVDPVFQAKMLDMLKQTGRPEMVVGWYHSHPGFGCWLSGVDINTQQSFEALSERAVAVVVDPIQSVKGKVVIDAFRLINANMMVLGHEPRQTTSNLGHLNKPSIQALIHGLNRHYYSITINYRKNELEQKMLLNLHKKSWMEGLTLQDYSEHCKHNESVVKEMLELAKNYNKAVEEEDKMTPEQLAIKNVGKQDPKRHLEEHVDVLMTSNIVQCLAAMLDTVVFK
Sequence of Sentrin-specific protease 6 (Q9GZR1 whole entry): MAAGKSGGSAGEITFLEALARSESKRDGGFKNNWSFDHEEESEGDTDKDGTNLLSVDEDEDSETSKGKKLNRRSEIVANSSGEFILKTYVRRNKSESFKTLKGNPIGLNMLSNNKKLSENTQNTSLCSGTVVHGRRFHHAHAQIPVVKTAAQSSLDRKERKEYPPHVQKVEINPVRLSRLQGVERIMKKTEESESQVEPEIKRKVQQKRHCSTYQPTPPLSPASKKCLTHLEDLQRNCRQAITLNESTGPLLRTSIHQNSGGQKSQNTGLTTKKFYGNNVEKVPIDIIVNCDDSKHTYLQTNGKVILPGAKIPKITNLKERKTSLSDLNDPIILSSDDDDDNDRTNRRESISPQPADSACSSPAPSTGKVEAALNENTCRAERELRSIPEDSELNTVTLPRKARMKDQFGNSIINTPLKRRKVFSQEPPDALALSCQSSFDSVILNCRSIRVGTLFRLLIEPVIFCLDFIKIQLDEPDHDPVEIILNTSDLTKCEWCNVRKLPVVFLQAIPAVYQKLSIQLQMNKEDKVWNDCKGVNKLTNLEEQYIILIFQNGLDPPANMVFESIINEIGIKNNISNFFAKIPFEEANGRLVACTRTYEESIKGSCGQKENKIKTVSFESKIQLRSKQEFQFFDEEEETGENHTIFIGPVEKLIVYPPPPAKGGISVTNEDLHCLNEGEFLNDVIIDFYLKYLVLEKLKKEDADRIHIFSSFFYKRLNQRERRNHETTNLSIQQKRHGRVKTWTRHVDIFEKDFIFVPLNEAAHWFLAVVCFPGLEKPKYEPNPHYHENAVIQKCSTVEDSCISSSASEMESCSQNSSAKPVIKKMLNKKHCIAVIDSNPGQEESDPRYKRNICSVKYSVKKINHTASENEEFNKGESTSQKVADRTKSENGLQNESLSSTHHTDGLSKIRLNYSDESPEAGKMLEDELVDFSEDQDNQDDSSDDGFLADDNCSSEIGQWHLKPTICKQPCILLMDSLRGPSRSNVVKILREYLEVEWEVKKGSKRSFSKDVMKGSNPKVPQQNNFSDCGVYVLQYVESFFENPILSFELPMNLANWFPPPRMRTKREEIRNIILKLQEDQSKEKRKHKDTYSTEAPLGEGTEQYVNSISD
Sequence of Sentrin-specific protease 7 (Q9BQF6 whole entry): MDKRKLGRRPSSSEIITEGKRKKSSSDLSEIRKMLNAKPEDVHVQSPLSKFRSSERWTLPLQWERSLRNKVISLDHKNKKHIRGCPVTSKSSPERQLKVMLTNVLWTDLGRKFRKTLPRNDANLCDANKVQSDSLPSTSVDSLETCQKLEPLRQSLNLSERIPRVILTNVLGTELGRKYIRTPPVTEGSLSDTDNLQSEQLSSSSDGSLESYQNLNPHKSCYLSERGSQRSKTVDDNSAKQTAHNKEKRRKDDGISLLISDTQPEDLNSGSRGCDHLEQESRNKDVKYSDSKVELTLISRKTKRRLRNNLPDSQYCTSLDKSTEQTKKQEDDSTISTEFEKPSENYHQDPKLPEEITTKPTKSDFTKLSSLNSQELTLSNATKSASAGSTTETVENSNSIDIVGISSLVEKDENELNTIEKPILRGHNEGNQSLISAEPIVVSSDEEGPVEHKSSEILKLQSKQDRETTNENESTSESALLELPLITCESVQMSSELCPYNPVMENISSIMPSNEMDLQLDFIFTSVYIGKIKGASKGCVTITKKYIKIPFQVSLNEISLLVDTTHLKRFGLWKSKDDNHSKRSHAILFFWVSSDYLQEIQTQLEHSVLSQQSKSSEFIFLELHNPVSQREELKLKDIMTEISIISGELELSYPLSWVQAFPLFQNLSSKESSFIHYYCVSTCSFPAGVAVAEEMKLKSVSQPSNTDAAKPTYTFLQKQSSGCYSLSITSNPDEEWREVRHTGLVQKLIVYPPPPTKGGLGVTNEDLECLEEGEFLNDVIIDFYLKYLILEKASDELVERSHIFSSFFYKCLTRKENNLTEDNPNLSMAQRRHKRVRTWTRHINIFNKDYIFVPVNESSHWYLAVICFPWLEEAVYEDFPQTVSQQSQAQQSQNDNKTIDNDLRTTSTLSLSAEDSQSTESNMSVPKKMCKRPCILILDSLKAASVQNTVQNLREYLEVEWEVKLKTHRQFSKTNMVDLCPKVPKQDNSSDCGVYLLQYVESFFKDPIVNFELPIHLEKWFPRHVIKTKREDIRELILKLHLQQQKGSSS
Sequence of Low molecular weight phosphotyrosine protein phosphatase (P24666 whole entry): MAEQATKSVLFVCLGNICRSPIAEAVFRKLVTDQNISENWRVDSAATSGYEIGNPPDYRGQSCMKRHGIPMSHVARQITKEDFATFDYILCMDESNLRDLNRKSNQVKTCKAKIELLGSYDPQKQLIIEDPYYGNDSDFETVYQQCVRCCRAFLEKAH

## CCCCCCC1CC(Cc2c(C)[nH]c3ccccc23)C(=O)O1 (stereo not drawn)
[1]
  EC50: > 100 µM (inactive)

## CN(C)CCCN/C=C1\C(=O)NC(=O)N(CCc2ccccc2)C1=O
[2]
  IC50: > 100 µM (inactive)
Prothrombin
  IC50: 35.1 µM (active)
[3]
  IC50: 28.7 µM (active)

## CN(C)S(=O)(=O)c1ccc(N2CCCC2)c(C(=O)NNC(=O)c2ccc(Br)cc2)c1
[4]
  IC50: 3.72 µM (active)

## CN(C/C=C/c1ccccc1[N+](=O)[O-])Cc1ccccc1
Escherichia coli [5]
  AC50: 42.7 µM (active)

## Cc1nnsc1NC(=O)OCc1ccccc1Cl
[6]
  IC50: 45.6 µM (active)
[7]
  IC50: 13 µM (active)
[8]
  IC50: 52.7 µM (active)
Caspase-3
  IC50: 21.4 µM (active)

## CCc1ccccc1NC(=O)CNC1CCCCC1.[O-][Cl+3]([O-])([O-])O
Escherichia coli [5]
  AC50: 76.7 µM (active)
Escherichia coli [9]
  AC50: 22.6 µM (active)

## O=C(O)c1cc(N/N=C2/CC(c3ccccc3)Oc3ccccc32)ccc1Cl (stereo not drawn)
Cysteine protease ATG4B
  IC50: 7.53 µM (active)
Phospholipase A2
  IC50: 7.77 µM (active)

## COC(=O)c1sc2nc(CSc3ccc(Br)cc3)[nH]c(=O)c2c1C
[2]
  IC50: > 100 µM (inactive)
Prothrombin
  IC50: 30 µM (active)
[3]
  IC50: 26.6 µM (active)

## COc1ccc(NS(=O)(=O)c2ccc(O)c(NC(=O)c3cc4c(C)nn(-c5ccc(F)cc5)c4s3)c2)cc1
Mu-type opioid receptor
  EC50: > 92.5 µM (inactive)
[10]
  EC50: > 92.5 µM (inactive)
[11]
  IC50: 6.92 µM (active)
[12]
  AC50: 2.11 µM (active)
[13]
  EC50: > 53 µM (inactive)
[14]
  EC50: > 92.5 µM (inactive)

## CCn1cc(C(=O)O)c(=O)c2cc(F)c(N3CCN(C(=S)NC(=O)c4cc(OC)cc(OC)c4)CC3)cc21
Streptococcus
  EC50: 30.2 µM (active)
[15]
  IC50: 1.47 µM (active)
[16]
  EC50: 2.89 µM (active)
Streptokinase A
  EC50: > 150 µM (not active)

## Cc1ccccc1-c1nnc(SCc2ccccc2F)o1
[6]
  IC50: 21.9 µM (active)
[7]
  IC50: 6.14 µM (active)
[8]
  IC50: 45.1 µM (active)
Caspase-3
  IC50: 29.1 µM (active)

## CCN(CC)CCCNC(=O)c1cn(CC)c2ccc(S(=O)(=O)N3CCc4ccccc4C3)cc2c1=O
[17]
  IC50: 4.17 µM (active)
[18]
  IC50: 2.67 µM (active)

## CCOc1ccc(C(=O)C2CCN(CC(=O)Nc3ccccc3N3CCOCC3)CC2)cc1
[19]
  AC50: 10.8 µM (active)
Cysteine protease ATG4B
  IC50: 13.2 µM (active)
[20]
  AC50: > 70 µM (inactive)
[21]
  AC50: 0.94 µM (active)
Phospholipase A2
  IC50: 11.9 µM (active)
[22]
  AC50: 3.34 µM (active)
[23]
  AC50: 10.4 µM (active)

## CCN(CC)CCCNC(=O)c1ccccc1NC(=O)C1=CSCCO1
[17]
  IC50: 4.48 µM (active)
[18]
  IC50: 3.57 µM (active)

## CCOC(=O)CCCCCC(=O)Nc1ccc2c(c1)CC(=O)N([C@H](C)CO)C[C@@H](C)[C@H](CN(C)Cc1ccc3c(c1)OCO3)O2
[24]
  IC50: 30.8 µM (inactive)

## COc1ccc2[nH]c3c(=O)n(/N=C/[C@H]4C(C)C=C(C)CC4C)c(=O)[nH]c3c2c1 (stereo partly drawn)
Mu-type opioid receptor
  EC50: > 92.5 µM (inactive)
[10]
  EC50: > 92.5 µM (inactive)
[25]
  EC50: 35.4 µM (active)
[26]
  EC50: 30.5 µM (active)
[14]
  EC50: > 92.5 µM (inactive)
